A short description of this data set: Inhibition of ABCB1 in human K562/A02 cells assessed as potentiation of adriamycin-induced cytotoxicity by measuring compound concentration required for reduction of ADR IC50 after 48 hrs by MTT assay. On the technique in general: Tetrazolium assays rely on reduction of a dye to a coloured formazan, in cell work by metabolically active cells.

As usually defined, the EC50 is the concentration needed to bring the measured effect to its halfway point.

Take `COc1cc2c(cc1OC)CN(CCc1ccc(NC(=O)c3cccnc3NCc3ccncc3)cc1)CC2`: the EC50 was 120 nM.

For the molecule `O=C(Nc1ccc(N2CCOCC2)cc1)c1cccnc1NCc1ccncc1`, the EC50 amounted to 329 nM.

For the origin of these results see BindingDB's records for doi:10.1021/acs.jmedchem.6b01879 (China Pharmaceutical University, 2017).
